Here are results for 4 compounds from paper PMC3914206.

In assay [1] the target is T1, panel of 442 kinases (Homo sapiens, UniProt Q6XUX3).
T1 construct: purchased KINOMEscan
T1 sequence (Q6XUX3 1-929): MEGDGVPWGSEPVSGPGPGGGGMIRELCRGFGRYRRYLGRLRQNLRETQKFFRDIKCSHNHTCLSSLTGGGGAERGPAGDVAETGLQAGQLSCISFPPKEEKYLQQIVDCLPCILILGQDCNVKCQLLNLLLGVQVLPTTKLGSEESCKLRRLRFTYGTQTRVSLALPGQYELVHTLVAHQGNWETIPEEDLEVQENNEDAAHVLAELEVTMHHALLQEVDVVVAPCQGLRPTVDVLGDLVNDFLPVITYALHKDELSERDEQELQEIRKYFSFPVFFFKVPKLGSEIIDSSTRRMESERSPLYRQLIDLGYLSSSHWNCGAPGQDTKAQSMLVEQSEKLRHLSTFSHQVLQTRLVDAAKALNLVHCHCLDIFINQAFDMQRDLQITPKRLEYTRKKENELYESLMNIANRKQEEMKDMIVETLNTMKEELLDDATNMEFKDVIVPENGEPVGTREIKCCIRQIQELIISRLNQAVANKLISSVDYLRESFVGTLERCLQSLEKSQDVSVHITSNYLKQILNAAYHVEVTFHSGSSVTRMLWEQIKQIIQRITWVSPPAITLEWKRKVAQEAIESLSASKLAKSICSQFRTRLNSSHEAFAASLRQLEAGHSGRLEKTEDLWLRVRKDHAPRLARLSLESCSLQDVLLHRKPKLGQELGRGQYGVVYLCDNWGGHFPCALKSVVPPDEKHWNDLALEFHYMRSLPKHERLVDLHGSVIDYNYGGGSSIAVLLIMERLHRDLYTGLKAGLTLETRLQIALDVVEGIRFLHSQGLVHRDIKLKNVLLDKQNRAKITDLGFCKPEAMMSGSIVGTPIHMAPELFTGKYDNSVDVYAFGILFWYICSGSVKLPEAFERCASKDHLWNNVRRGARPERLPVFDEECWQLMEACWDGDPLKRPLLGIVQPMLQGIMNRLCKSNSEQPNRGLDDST
The format is binding. The conditions noted are these: Compound Concentration 10 µM. The source says:
(§1) We assessed the selectivity of members of this scaffold using the KINOMEscan methodology across a near comprehensive panel of 442 kinases [[18,27]].

Assay [2] concerns the target T2, panel of 442 kinases (Homo sapiens, UniProt Q9HCP0).
T2 construct: purchased KINOMEscan
The format is binding. The conditions noted are these: Compound Concentration 10 µM.
Source text: as §1

T2 sequence (Q9HCP0 whole entry): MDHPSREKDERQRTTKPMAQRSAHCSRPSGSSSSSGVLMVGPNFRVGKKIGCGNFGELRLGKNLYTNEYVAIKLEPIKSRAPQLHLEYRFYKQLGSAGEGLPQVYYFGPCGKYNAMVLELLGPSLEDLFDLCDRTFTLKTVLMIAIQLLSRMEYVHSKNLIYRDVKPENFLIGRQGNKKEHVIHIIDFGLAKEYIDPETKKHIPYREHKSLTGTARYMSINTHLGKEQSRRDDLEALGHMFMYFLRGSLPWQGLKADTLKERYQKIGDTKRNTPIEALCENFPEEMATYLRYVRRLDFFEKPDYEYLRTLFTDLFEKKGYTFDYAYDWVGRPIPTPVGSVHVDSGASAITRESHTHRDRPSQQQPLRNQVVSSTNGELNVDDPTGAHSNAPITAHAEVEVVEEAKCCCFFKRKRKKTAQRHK

For the compound `CCOc1cc(C(=O)N2CCC(N3CCN(C)CC3)CC2)ccc1Nc1ncc2c(n1)N(C1CCCC1)c1ccccc1C(=O)N2C` [Compound 26], the “KINOMEscan: RIPK5” value on panel of 442 kinases [1] was 16. The “KINOMEscan: CSNK1G1” value at panel of 442 kinases [2] is 98.

`COc1cc(C(=O)N2CCC(N3CCN(C)CC3)CC2)ccc1Nc1ncc2c(n1)N1CCc3cccc(c31)C(=O)N2C` [Compound 24]: the “KINOMEscan: RIPK5” value on panel of 442 kinases [1] was determined as 24.

On to `COc1cc(C(=O)N2CCC(N3CCN(C)CC3)CC2)ccc1Nc1ncc2c(n1)N(C)c1ccccc1C(=O)N2C` [15 (LRRK2-IN-1)], for which the “KINOMEscan: RIPK5” value on panel of 442 kinases [1] worked out at 16. Besides, the “KINOMEscan: CSNK1G1” value at panel of 442 kinases [2] is given as 100.

As for `COc1cc(C(=O)N2CCC(N3CCN(C)CC3)CC2)ccc1Nc1ncc2c(n1)N(C1CCCC1)c1ccccc1C(=O)N2C` [Compound 25, 11-cyclopentyl-2-((2-methoxy-4-(4-(4-methylpiperazin-1-yl)piperidine-1-carbonyl)phenyl)amino)-5-methyl-5H-benzo[e]pyrimido[5,4-b][1,4]diazepin-6(11H)-one], the “KINOMEscan: RIPK5” value on panel of 442 kinases [1] turned out to be 4.9. Also, the “KINOMEscan: CSNK1G1” value on panel of 442 kinases [2] is recorded as 73.
